From patent US12065485B2, “Treatment of staphylococcal disorders” (priority 2013, dated 2024)
Where a name gives a salt, the structure may show the parent alone. Read-outs that look alike come from different tables or passages of the source.

Tested on: P3 promoter (RNAIII / delta-toxin expression)
Test: USA300-P3-Luc reporter screen for inhibition of RNAIII induction (P3 promoter activation by AIP)
Format: cell-based, Staphylococcus aureus
Settings: for inhibition at 40 µM: Staphylococcus aureus; for % Inhibition: relative to positive control (USA400 inhibitory AIP supernatant)
Protocol: Staphylococcus aureus pulse-field gel electrophoresis (PFGE) type USA300 transformed with a plasmid containing the P3 promoter followed by the luciferase gene (USA300-P3-Luc) was grown in tryptic soy broth (TSB) to […] (5×10^8 CFU/mL), as determined by optical density at 600 nm, from overnight cultured bacteria and harvested via centrifugation (4,000×g, 4° C., 5 minutes). Supernatant was removed and the bacterial pellet was washed twice with an equal volume of PBS. Bacteria were suspended in PBS at 5×10^8 CFU/mL, as confirmed by plating serial dilutions onto TSB. 2×10^6 CFU washed USA300-P3-Luc was incubated with wt USA300 8-hour filtered supernatant containing stimulatory auto-inducing peptide (AIP) at a final dilution of 1:10 and 40 μM each compound in a total of 40 μL/well of TSB on a 384-well plate. The S. aureus two-component agr system induces delta-toxin expression via expression of AIP at stationary growth phase and was used to stimulate activation of the P3 promoter. Alternatively, AIP produced by a different S. aureus strain, PFGE type USA400, acts to inhibit delta-toxin expression in USA300. As a positive control, samples were incubated with USA400 8-hour filtered supernatant containing inhibitory AIP at a final dilution of 1:10 instead of test compound. Samples were incubated at 37° C. for 2 hours, then analyzed for luminescence and optical density at 600 nm. Percent Inhibition was determined by the following formula: Percent inhibition=100×(LumNo Inhibitor−Lumcompound)/(LumNo Inhibitor.−LumPositive control). Inhibitory compounds suitable for use in methods of inhibiting skin inflammation according to the disclosure were identified (Table 2) based on at least a 40% inhibition relative to the positive control, minimal reduction in growth as determined by optical density at 600 nm, and relatively low promiscuity (<10%) in relation to other high-throughput assays performed using these compounds.

[1] = 40 μM compound, 2 hours at 37° C., luminescence, relative to positive control (USA300 inhibitory AIP supernatant), read-out: % Inhibition
[2] = 40 μM compound, 2 hours at 37° C., luminescence

Structure (SMILES)	inhibition at 40 µM [1] [%]	further results
CC(C)c1ccc2c(c1)c(SC(C)(C)C)c(CC(C)(C)C(=O)O)n2Cc1ccc(Cl)cc1 [1H-Indole-2-propanoic acid, 1-[(4-chlorophenyl)methyl]-3-[(1,1-dimethylethyl)thio]-Alpha,Alpha-dimethyl-5-(1-methylethyl)-]	86.3	–
O=C(/C=C/c1ccc(O)cc1)c1ccccc1O [2′,4-DIHYDROXYCHALCONE]	71.9	–
NCCCNCCCCNC(=O)C(NC(=O)CCCCCN=C(N)N)c1ccc(Br)cc1 (centres unmarked) [4Br-AHX]	–	% Inhibition [2]: 55.8%
O=C(O)c1cc2cc(Cl)ccc2[nH]1 [5-CHLOROINDOLE-2-CARBOXYLIC ACID]	47.8	–
COc1ccc(CNC(=O)Nc2ncc([N+](=O)[O-])s2)cc1 [361549, GSK-3b Inhibitor VIII, GSK-3b Inhibitor VIII]	–	% Inhibition [2]: 73.7%
NCCOB(c1ccccc1)c1ccccc1 [AMINOETHOXYDIPHENYLBORANE]	82.1	–
O=C(O)Cc1ccccc1Nc1c(Cl)cccc1Cl [Benzeneacetic acid, 2-[(2,6-dichlorophenyl)amino]-, monosodium salt]	65.1	–
CC(C)c1cc2c(c(O)c1O)[C@@]1(C(=O)O)CCCC(C)(C)[C@@H]1CC2 [CARNOSIC ACID]	95.8	–
O=C1C(Cl)=C(Cl)C(=O)C(Cl)=C1Cl [CHLORANIL]	47.7	–
Cc1cc(O)c2c(c1)C(=O)c1cccc(O)c1C2=O [CHRYSOPHANOL]	47.2	–
COC(=O)[C@H](c1ccccc1Cl)N1CCc2sccc2C1 [CLOPIDOGREL SULFATE]	69.4	–
CCCc1c(OCCCCc2nnn[nH]2)ccc(C(C)=O)c1O [CPD000058555_LY 171883, LY 171883]	48.7	–
O=C(c1ccc(F)cc1)C1CCN(CCn2c(=S)[nH]c3ccccc3c2=O)CC1 [CPD000466283_Altanserin, Altanserin]	59	–
CCOc1cc(CC(=O)N[C@@H](CC(C)C)c2ccccc2N2CCCCC2)ccc1C(=O)O [CPD000466305_REPAGLINIDE, REPAGLINIDE]	49	–
COc1cc(C)c(Cc2cnc(N)nc2N)cc1OC [CPD000466374_ORMETOPRIM, ORMETOPRIM]	53.2	–
CC(C)c1nc(CN(C)C(=O)N[C@H](C(=O)N[C@@H](Cc2ccccc2)C[C@H](O)[C@H](Cc2ccccc2)NC(=O)OCc2cncs2)C(C)C)cs1 [CPD000466395_RITONAVIR, RITONAVIR]	85.7	–
Cc1ccsc1C(=CCCN1CCC[C@@H](C(=O)O)C1)c1sccc1C [CPD000469176_TIAGABINE HCl, TIAGABINE HCl]	69.7	–
C#C[C@]1(O)CC[C@H]2[C@@H]3CCC4=Cc5oncc5C[C@]4(C)[C@H]3CC[C@@]21C [DANAZOL]	47.4	–
O=C1c2cccc(O)c2C(=O)c2c(O)cccc21 [DANTRON]	76.1	–
CC(=O)Oc1cccc2c1C(=O)c1c(OC(C)=O)cc(C(=O)O)cc1C2=O [DIACERIN]	–	% Inhibition [2]: 76%
c1ccc2c(c1)sc1ccccc12 [DIBENZOTHIOPHENE]	50.7	–
C/C=C(/C(=C/C)c1ccc(O)cc1)c1ccc(O)cc1 [DIENESTROL]	90.8	–
CN1C[C@H](C(=O)N[C@]2(C)O[C@@]3(O)[C@@H]4CCCN4C(=O)[C@H](Cc4ccccc4)N3C2=O)C[C@@H]2c3cccc4[nH]cc(c34)C[C@H]21 [DIHYDROERGOTAMINE MESYLATE]	52.2	–
C=C1CC[C@H](O)C/C1=C/C=C1\CCC[C@]2(C)[C@@H]([C@H](C)/C=C/[C@H](C)C(C)C)CC[C@@H]12 [ERGOCALCIFEROL]	51.9	–
Cc1c(Nc2ncccc2C(=O)O)cccc1C(F)(F)F [FLUNIXIN MEGLUMINE | BANAMINE, FLUNIXIN MEGLUMINE]	69.2	–
C=C1C[C@]23C[C@@]1(O)CC[C@H]2[C@@]12C=C[C@H](O)[C@@](C)(C(=O)O1)[C@H]2[C@@H]3C(=O)O [G[…]]	–	inhibition at 40 µM (USA300, 2 h): 60.5%
O=c1c(O)c(-c2ccccc2)oc2cc(O)cc(O)c12 [Galangine]	–	% Inhibition [2]: 79.5%

Structure (SMILES)	inhibition at 40 µM [1] [%]	further results
Oc1cc2c(cc1O)C1c3ccc(O)c(O)c3OCC1(O)C2 (centres unmarked) [HAEMATOXYLIN]	62.9	–
CC[C@H](c1ccc(O)cc1)[C@@H](CC)c1ccc(O)cc1 [HEXESTROL]	99.9	–
O=C(NC(=O)c1c(F)cccc1F)Nc1cc(Cl)c(OC(F)(F)C(F)C(F)(F)F)cc1Cl (centres unmarked) [LUFENURON | PROGRAM, LUFENURON]	55.8	–
Cc1ccc(Nc2c(F)cccc2Cl)c(CC(=O)O)c1 [LUMIRACOXIB | PREXIGE, LUMIRACOXIB]	60	–
O=C(O)c1nn(Cc2ccc(Cl)cc2Cl)c2ccccc12 [Lonidamine]	71.3	–
CC(=O)O[C@]1(C(C)=O)CC[C@H]2[C@@H]3C=C(C)C4=CC(=O)CC[C@]4(C)[C@H]3CC[C@@]21C [MEGESTROL ACETATE]	46.5	–
COC(=O)CC[C@@H](C)[C@H]1CC[C@H]2[C@@H]3CC[C@@H]4C[C@H](O)CC[C@]4(C)[C@H]3C[C@H](O)[C@]12C [METHYL DEOXYCHOLATE]	78.9	–
CO/N=C1\C[C@]2(C[C@@H]3C[C@@H](C/C=C(\C)C[C@@H](C)/C=C/C=C4\CO[C@@H]5[C@H](O)C(C)=C[C@@H](C(=O)O3)[C@]45O)O2)O[C@H](/C(C)=C/C(C)C)[C@H]1C [MOXIDECTIN | CYDECTIN, MOXIDECTIN]	58.9	–
O=C(O)c1ccccc1Nc1cccc2c1C(=O)c1cccc(Nc3ccccc3C(=O)O)c1C2=O [NCI16221]	–	% Inhibition [2]: 49.9%
O=C(N/N=C/c1ccc([N+](=O)[O-])o1)c1cc([N+](=O)[O-])cc([N+](=O)[O-])c1O [NIFURSOL]	63.9	–
C#C[C@]1(O)CC[C@H]2[C@@H]3CCC4=CC(=O)CC[C@@H]4[C@H]3CC[C@@]21C [NORETHINDRONE]	52.4	–
CCCC[C@@H](CC)COC(=O)C(C#N)=C(c1ccccc1)c1ccccc1 [OCTOCRYLENE | EUSOLEX, OCTOCRYLENE]	–	% Inhibition [2]: 97.9%
COc1ccnc(C[S+]([O-])c2nc3ccc(OC(F)F)cc3[nH]2)c1OC (centres unmarked) [PANTOPRAZOLE | PROTONIX, PANTOPRAZOLE]	52.8	–
Nc1ccc(/N=N/c2ccccc2)c(N)n1 [PHENAZOPYRIDINE HYDROCHLORIDE]	75.5	–
O=C1OC(c2ccc(O)cc2)(c2ccc(O)cc2)c2ccccc21 [PHENOLPHTHALEIN]	72.4	–
COc1ccc(-c2c(O)c3c(OC)c4c(cc3oc2=O)OC(C)(C)C=C4)cc1 [ROBUSTIC ACID]	96.9	–
C[C@@H]1CC[C@@]2(OC1)O[C@H]1C[C@H]3[C@@H]4CC[C@@H]5C[C@@H](O)CC[C@]5(C)[C@H]4CC[C@]3(C)[C@H]1[C@@H]2C [SMILAGENIN]	–	% Inhibition [2]: 75.3%
Cc1ccc(Cl)c(Nc2ccccc2C(=O)O)c1Cl [SODIUM MECLOFENAMATE]	90.9	–
Oc1c2ccccc2c2c3c(cccc13)N=N2 [SP 600125]	45.3	–
O=C(O)c1ccccc1Nc1cccc(OCc2ccc3ccccc3n2)c1 [SR 2640]	98.7	–
CSc1ccc(/C=C2/C(C)=C(CC(=O)O)c3cc(F)ccc32)cc1 [Sulindac Sulfide]	72.4	–
CCC(=O)O[C@H]1CC[C@H]2[C@@H]3CCC4=CC(=O)CC[C@]4(C)[C@H]3CC[C@]12C [TESTOSTERONE PROPIONATE]	65.7	–
Cc1ccc(S(=O)(=O)N[C@@H](Cc2ccccc2)C(=O)CCl)cc1 [TPCK]	–	% Inhibition [2]: 87.8%
C[C@H](CCC(=O)O)[C@H]1CC[C@H]2[C@@H]3CC[C@@H]4CCCC[C@]4(C)[C@H]3CC[C@]12C [URSOCHOLANIC ACID]	61.3	–
Oc1nc(-c2ccc(C(F)(F)F)cc2)nc2c1CSCC2 [XAV939]	53.4	–
Cc1cc(CC(=O)O)n(C)c1C(=O)c1ccc(Cl)cc1 [ZOMEPIRAC SODIUM]	64.8	–
